Measurements reported in patent US7470669B2, “Isolated polypeptide comprising a leptin fragment” (Serono Genetics Institute, S.A., priority 1999, dated 2008).

Experiments:
[1] = system: LSR; test: 125I-leptin degradation in PLC cells; assay type: cell-based, human; settings: 50 μM
[2] = system: LSR; test: LSR activity (oleate-induced 125I-LDL binding, uptake, degradation) in primary cultures of rat hepatocytes; assay type: cell-based; settings: rat hepatocytes; 50 μM
Experimental: FIGS. 6A, 6B, and 6C show the effect of leptin on ^125I-LDL and ^125I-chylomicron binding to LSR in primary cultures of rat hepatocytes. For FIG. 6A, primary cultures of rat hepatocytes (48 hours after plating) were incubated at 37° C. for 30 min in the absence (□) or presence (▪) of 50 ng/mL leptin in Buffer A, followed by a 20 min incubation at 37° C. with 0.5 mM oleate. The cells were then washed with ice-cold PBS, precooled for 10 min, and then incubated for 1 h at 4° C. with increasing concentrations of ^125I-LDL in Buffer A. Cells were washed, were lysed in 0.1 N NaOH and were counted for radioactivity. Results are shown as the mean of duplicate determinations. For FIG. 6B, primary cultures of rat hepatocytes were incubated at 37° C. for 30 min with or without 20 ng/mL leptin followed by incubation at 37° C. for 4 h with 6 μg protein/mL ^125I-chylomicrons in the absence or presence of 0.5 mM oleate in Buffer A. The cells were then washed and the ^125I-chylomicrons bound to the cell surface were released into the media by incubation with 10 mM suramin. The media was recovered and the radioactivity was measured. Results are shown as the mean±SD of six determinations. Fir FIG. 6C, after incubation at 37° C. for 30 min with 50 ng/mL leptin, the cells were incubated at room temperature for 30 min with 200 μg IgG/mL antibodies directed against rat LSR protein or irrelevant IgG. The amount of ^125I-chylomicrons bound was determined, and results are shown as means±SD of triplicate (irrelevant) or quadruplicate (anti-LSR) determinations.
(§1) FIGS. 7A and 7B show a comparison of the effect of human and mouse leptin on LSR activity in rat hepatocytes and on postprandial increase in plasma TG in db^Pas/db^Pas mice. For FIG. 7A, primary cultures of rat hepatocytes were incubated 30 min at 37° C. without (open bar) or with 10 ng/mL recombinant human (solid bar) or mouse (hatched bar) leptin in Buffer A. Oleate (0.5 mM) and ^125I-LDL (20 μg/mL) were added and the cells were incubated 2 h at 37° C. The media were removed and were analyzed for TCA-soluble degradation products. The mean of duplicate determinations is shown. For FIG. 7B, db^Pas/db^Pas mice were given a test meal as previously described, followed immediately by injection i.p. of saline (open bar, n=4), human leptin (1 μg/animal; solid bar, n=3) or mouse leptin (0.25 μg/animal; hatched bar; n=3). The data represent the difference in TG concentrations measured at t=0 and the average of the concentrations at 3 and 4 hours. Results are shown as mean±SEM.
Cells were incubated 30 min at 37° C. with increasing concentrations of mouse (▪) or human (●) leptin peptide. Following this, 0.5 mM oleate and 20 μg/mL ^125I-LDL were added and the cells were further incubated for 2 h at 37° C. The cells were washed, and the amount of oleate-induced ^125I-LDL bound and degraded was measured as described previously (Bihain, B. E., and Yen, F. T. (1992). Free fatty acids activate a high-affinity saturable pathway for degradation of low-density lipoproteins in fibroblasts from a subject homozygous for familial hypercholesterolemia. Biochemistry 31, 4628-4636).
FIGS. 11A and 11B show the effect of mouse leptin (FIG. 11A) or leptin peptide (FIG. 11B) on postprandial plasma TG response in ob/ob mice. […] Postprandial triglyceridemia was measured as described previously. Each point represents the mean±SEM (A: saline, n=8, leptin, n=7; leptin peptide: saline, n=8, leptin, n=8). […] Primary cultures of rat hepatocytes were incubated 30 min at 37° C. with increasing concentrations of mouse leptin peptide. Oleate (0.5 mM) and ^125I-LDL (20 μg/mL) were added and the cells were incubated 2 h at 37° C. After washing, the amount of 125I-LDL bound to the cell surface was measured as described in the Examples section herein. […]

[3] = system: db^Pas/db^Pas mice; test: Postprandial plasma TG response after high-fat test meal in db^Pas/db^Pas mice; assay type: in vivo, mouse; settings: 1 μg/animal i.p.
Experimental: FIGS. 1A and 1B show the effect of leptin on postprandial plasma TG response in db/db and db^Pas/db^Pas mice. Overnight-fasted db/db (A), db^Pas/db^Pas (B) mice were gavage-fed a high-fat test meal and immediately injected intravenously (db/db) or intraperitoneally (db^Pas/db^Pas) with saline (open symbols) or 50 μg mouse recombinant leptin (closed symbols). At the indicated times, blood was collected from the tail (A) or orbital (B) vein, plasma was separated by centrifugation, and plasma TG concentrations were determined using an enzymatic kit. Each point represents the mean±SEM (db/db: saline, n=4, leptin, n=3; db^Pas/db^Pas: saline, n=6, leptin, n=7). The average plasma lipid response in 10 control C57BL6 mice is shown as a dotted line in both A and B. In a separate experiment, shown as an inset for each strain of mice, overnight fasted db/db (●) or db^Pas/db^Pas (▪) mice were gavage-fed the test meal and immediately injected intravenously with increasing concentrations of leptin. The plasma lipid response was then measured as in A and B. The area under the response curve (AUC) was then calculated using a triangulation method on Microsoft Excel between 0 and 4 hr (mg TG·h/mL). Values are presented as % of control value (test meal alone obtained in A or B). Each point represents the mean of at least 3 mice.
as §1
Mice that were fasted for 2-3 hours were gavage-fed 300 μL of a test meal consisting of 60% fat (37% saturated, 27% mono-, and 36% polyunsaturated fatty acids), 20% protein and 20% carbohydrate, and providing 56 kcal of energy/kg (1.5 g butter, 1.5 g sunflower oil, 2.5 g nonfat dry milk, 2.5 g sucrose and 3 ml water). […] TG concentrations were determined using a commercially available enzymatic kit with controls included in each assay (Precinorm L, Roche-Boehringer Mannheim; Lyotrol N, BioMérieux).

[4] = system: LSR; test: LSR activity (oleate-induced 125I-LDL binding, uptake, degradation) in PLC cells; assay type: cell-based, human
Experimental: FIGS. 5A, 5B, 5C, and 5D show the stimulatory effect of leptin on LSR activity in PLC and suppression of this effect by 81B antibody. For FIGS. 5A, 5B, and 5C, cultured PLC cells were incubated at 37° C. for 30 min with increasing concentrations of human recombinant leptin in Buffer A. After this, 0.5 mM oleate and 20 μg/mL ^125I-LDL were added, and cells were further incubated at 37° C. for 2 h. Cells were washed, and the amount of oleate-induced ^125I-LDL bound (5A), internalized (5B) and degraded (5C) were measured. For FIG. 5D, PLC cells were incubated at room temperature for 30 min with 200 μg/mL anti-LSR peptide 81B or 170 antibody, followed by incubation at 37° C. for 30 min without (open bar) or with (hatched bar) 10 ng/mL human leptin. Oleate (0.5 mM) and ^125I-LDL (20 μg/mL) were added, and the monolayers were left at 37° C. for 3 h. After washing, the amount of ^125I-LDL binding was determined, and is shown here as the mean±SD of triplicate determinations.
FIGS. 8A and 8B show the effect of mouse or human leptin on LSR activity in primary cultures of rat hepatocytes or a human liver cell line (PLC). Primary cultured rat hepatocytes were obtained commercially (In Vitro Tech). The PLC cell line was obtained from ATCC repository and maintained in culture. Rat hepatocytes 72 h after plating (8A) or confluent monolayers of PLC (8B) were incubated 30 min at 37° C. with 0 (closed bar) or 10 ng/mL of human (open bar) or mouse (hatched bar) recombinant leptin. Following this, 0.5 mM oleate and 20 μg/mL ^125I-LDL were added and the cells were further incubated for 2 h at 37° C. […] The cells were washed, and the amount of oleate-induced ^125I-LDL bound and degraded was measured as described previously (Bihain, B. E., and Yen, F. T. (1992). Free fatty acids activate a high-affinity saturable pathway for degradation of low density lipoproteins infibroblasts from a subject homozygous for familial hypercholesterolemia. Biochemistry 31, 4628-4636.
FIGS. 35A and 35B show graphs of LSR activity and mRNA expression measured in PLC cells preincubated 24 h with leptin. In FIG. 35A, PLC monolayers were incubated 24 h at 37° C. with (o) or without (n) 200 ng/mL human recombinant leptin. After washing with PBS, cells were incubated 30 min at 37° C. with increasing concentrations of human leptin, followed by a 2 h incubation at 37° C. with 0.8 mM oleate and 20 μg/mL ^125I-LDL. Cells were washed, and the amount of oleate-induced ^125I-LDL binding was measured as described previously. Results are shown as the mean of triplicate determinations. In FIG. 35B, PLC monolayers were incubated 24 h at 37° C. with 0, 200, or 400 ng/mL human recombinant leptin. After washing with PBS, the cells were harvested. Total RNA was prepared from the cell pellets, and Northerns were performed to detect LSR mRNA, using GAPDH probe as loading control as described previously. Northern blots were scanned on the Phosphorimager (Molecular Dynamics, Sunnyvale, Calif.). Densitometric analysis of the images was performed using the software ImageQuant. Results are shown as the amount of LSR signal relative to that of GAPDH (mean±SD, n=3/condition). […]

CCN(CC)CCCC(C)Nc1ccnc2cc(Cl)ccc12 (stereo not shown) [Chloroquine]
increase of the amount of cell-associated 125I-leptin [1]: 2-4 fold
inhibition of 125I-leptin degradation [1]: more than 60%

C[C@@H]1C[C@@H]([C@H](O)CC2CC(=O)NC(=O)C2)C(=O)[C@@H](C)C1 [cycloheximide, reference compound]
effect on the stimulatory effect of leptin on LSR activity [2]: did not suppress the stimulatory effect of leptin

C=C1[C@@H](C)[C@H]2[C@H](Cc3ccccc3)NC(=O)[C@]23OC(=O)/C=C/[C@H](O)CCC[C@@H](C)C/C=C/[C@H]3[C@@H]1O [cytochalasin B, reference compound]
reduction of leptin stimulation of LSR activity [2]: more than 80%

human leptin: commercial preparation of recombinant human leptin
postprandial plasma TG response [3]: slightly reduced
stimulation of LSR activity in human PLC cells ([4]; 10 ng/mL recombinant leptin): more efficient
LSR activity after long-term exposure ([4]; human liver cells (PLC) preincubated 24 h with 200 ng/mL): markedly reduced LSR activity
